Data: ChEMBL document CHEMBL1154642, “Synthesis and biological evaluation of heterocyclic ring-substituted maslinic acid derivatives as novel inhibitors of protein tyrosine phosphatase 1B” (Bioorg Med Chem Lett, 2009)

Legend:
[1] = species: Homo sapiens; experiment: Selectivity, ratio of IC50 for GST-tagged human TCPTP to IC50 for GST-tagged human PTP 1B
[2] = target: Tyrosine-protein phosphatase non-receptor type 6 (Homo sapiens, UniProt P29350); experiment: Inhibition of GST-tagged human SHP1
Tyrosine-protein phosphatase non-receptor type 6, sequence (P29350 whole entry): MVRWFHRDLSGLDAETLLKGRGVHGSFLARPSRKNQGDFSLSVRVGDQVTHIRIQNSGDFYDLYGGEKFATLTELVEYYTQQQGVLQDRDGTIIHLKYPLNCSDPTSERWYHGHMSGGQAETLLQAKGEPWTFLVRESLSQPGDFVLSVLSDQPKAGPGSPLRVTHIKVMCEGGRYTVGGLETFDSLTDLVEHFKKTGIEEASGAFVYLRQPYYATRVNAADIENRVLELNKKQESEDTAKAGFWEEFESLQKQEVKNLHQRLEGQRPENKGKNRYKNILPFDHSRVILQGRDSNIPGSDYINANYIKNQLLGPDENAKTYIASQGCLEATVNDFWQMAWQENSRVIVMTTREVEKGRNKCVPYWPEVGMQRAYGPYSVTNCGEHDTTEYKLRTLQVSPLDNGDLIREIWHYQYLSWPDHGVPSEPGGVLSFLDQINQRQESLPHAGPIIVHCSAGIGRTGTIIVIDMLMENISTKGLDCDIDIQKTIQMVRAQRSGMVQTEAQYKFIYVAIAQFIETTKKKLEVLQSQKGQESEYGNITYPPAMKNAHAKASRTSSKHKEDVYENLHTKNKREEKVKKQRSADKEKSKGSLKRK

[3] = target: Receptor-type tyrosine-protein phosphatase F (Homo sapiens, UniProt P10586); experiment: Inhibition of GST-tagged human LAR
Receptor-type tyrosine-protein phosphatase F, sequence (P10586 whole entry): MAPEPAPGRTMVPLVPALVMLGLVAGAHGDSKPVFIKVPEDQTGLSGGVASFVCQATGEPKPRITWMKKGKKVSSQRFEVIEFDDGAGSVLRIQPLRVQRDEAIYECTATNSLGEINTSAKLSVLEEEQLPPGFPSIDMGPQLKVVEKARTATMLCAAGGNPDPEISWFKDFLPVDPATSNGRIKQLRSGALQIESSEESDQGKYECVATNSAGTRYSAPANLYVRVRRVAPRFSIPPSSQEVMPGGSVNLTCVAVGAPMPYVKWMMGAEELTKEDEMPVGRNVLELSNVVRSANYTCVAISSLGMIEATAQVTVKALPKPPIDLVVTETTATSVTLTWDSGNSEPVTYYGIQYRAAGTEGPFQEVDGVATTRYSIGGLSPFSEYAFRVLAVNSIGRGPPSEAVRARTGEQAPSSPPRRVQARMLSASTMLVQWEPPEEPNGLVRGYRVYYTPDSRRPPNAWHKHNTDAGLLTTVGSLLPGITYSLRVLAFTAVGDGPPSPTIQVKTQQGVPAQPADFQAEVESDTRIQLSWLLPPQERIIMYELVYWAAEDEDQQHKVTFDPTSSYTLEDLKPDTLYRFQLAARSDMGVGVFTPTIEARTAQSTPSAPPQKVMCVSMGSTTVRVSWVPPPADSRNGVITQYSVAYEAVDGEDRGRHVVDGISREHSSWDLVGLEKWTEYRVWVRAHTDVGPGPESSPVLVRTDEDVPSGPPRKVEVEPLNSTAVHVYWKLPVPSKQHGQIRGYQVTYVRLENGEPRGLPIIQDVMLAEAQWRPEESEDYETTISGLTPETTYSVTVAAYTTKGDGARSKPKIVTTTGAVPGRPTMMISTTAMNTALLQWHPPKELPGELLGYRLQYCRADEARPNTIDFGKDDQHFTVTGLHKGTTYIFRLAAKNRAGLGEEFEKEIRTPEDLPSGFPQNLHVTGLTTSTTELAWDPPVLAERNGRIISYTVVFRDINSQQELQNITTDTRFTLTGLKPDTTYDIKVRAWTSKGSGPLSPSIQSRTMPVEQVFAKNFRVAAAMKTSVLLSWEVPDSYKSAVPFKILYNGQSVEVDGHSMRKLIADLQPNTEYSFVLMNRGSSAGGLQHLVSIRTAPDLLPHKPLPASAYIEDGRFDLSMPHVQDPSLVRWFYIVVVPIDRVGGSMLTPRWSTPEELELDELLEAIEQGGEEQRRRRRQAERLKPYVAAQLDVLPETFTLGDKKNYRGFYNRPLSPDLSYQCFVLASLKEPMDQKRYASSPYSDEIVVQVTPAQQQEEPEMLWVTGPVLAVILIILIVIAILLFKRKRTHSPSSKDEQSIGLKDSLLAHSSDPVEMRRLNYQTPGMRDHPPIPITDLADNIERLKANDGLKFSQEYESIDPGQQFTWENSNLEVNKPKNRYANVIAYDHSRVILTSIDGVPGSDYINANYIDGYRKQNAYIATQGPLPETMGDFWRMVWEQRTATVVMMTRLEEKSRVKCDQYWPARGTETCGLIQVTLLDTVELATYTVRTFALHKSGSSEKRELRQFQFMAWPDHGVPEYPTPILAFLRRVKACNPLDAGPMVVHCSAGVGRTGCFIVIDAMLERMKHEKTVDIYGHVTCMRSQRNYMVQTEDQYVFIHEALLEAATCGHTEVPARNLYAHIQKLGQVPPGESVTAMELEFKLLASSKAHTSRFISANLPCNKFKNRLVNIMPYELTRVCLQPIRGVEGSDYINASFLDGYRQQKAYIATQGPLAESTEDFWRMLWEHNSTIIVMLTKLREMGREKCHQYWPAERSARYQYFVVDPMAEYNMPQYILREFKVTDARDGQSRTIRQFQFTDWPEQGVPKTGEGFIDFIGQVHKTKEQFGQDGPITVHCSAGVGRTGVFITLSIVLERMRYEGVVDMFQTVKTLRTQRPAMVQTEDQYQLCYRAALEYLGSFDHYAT

[4] = target: T1, Tyrosine-protein phosphatase non-receptor type 11 (Homo sapiens, UniProt Q06124); experiment: Inhibition of GST-tagged human SHP2
T1 sequence (Q06124 whole entry): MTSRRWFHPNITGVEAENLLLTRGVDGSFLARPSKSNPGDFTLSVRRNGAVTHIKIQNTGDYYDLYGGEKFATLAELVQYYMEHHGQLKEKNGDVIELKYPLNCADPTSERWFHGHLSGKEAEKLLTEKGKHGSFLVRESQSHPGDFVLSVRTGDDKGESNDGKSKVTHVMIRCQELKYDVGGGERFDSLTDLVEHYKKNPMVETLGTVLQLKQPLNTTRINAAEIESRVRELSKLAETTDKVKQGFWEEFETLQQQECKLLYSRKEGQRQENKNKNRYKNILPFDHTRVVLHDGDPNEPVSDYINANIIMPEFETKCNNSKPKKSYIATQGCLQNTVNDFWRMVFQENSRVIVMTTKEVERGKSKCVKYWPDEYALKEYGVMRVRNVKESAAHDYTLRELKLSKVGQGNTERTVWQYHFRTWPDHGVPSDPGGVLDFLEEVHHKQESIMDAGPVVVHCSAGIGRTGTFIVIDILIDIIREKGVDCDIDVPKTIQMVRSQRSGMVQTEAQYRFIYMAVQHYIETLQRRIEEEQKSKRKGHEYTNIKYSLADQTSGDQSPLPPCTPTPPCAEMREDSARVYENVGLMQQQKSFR

[5] = target: T2, Tyrosine-protein phosphatase non-receptor type 1 (Homo sapiens, UniProt P18031); experiment: Inhibition of GST-tagged human PTP 1B
T2 sequence (P18031 whole entry): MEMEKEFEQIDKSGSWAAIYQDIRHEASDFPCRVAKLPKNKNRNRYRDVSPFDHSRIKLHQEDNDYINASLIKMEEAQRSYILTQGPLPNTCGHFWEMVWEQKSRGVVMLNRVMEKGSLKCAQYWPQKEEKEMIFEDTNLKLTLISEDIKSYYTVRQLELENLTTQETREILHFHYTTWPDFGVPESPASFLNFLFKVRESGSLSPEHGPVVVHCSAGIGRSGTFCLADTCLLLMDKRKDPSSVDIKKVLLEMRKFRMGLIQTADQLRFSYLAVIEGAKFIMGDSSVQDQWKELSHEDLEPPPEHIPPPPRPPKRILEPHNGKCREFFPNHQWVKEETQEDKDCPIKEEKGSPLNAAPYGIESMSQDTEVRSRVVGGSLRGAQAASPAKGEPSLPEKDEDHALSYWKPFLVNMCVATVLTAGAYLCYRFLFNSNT

[6] = target: T3, Tyrosine-protein phosphatase non-receptor type 2 (Homo sapiens, UniProt P17706); experiment: Inhibition of GST-tagged human TCPTP
T3 sequence (P17706 whole entry): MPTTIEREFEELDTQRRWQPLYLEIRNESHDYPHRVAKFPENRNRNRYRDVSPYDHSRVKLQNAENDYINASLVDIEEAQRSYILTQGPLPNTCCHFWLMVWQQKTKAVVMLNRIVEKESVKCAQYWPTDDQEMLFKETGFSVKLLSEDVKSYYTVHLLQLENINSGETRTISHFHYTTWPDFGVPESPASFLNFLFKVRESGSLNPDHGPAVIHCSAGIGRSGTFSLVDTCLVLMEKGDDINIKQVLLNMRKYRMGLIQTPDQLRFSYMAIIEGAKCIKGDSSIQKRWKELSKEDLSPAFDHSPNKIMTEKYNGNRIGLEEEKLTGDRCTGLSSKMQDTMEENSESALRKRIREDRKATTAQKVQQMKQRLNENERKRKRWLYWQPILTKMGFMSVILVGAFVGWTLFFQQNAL

[7] = Inhibition of glycogen phosphorylase

Row | SMILES | Ratio IC50 [1] | IC50 [2] [µM] | IC50 [3] [µM] | IC50 [4] [µM] | IC50 [5] [µM] | IC50 [6] [µM] | IC50 [7] [µM]
1 | CC1(C)CC[C@]2(C(=O)O)CC[C@]3(C)C(=CC[C@@H]4[C@@]5(C)Cc6cncnc6C(C)(C)[C@@H]5CC[C@]43C)[C@@H]2C1 | 3 | > 40 | > 40 | > 40 | 2.73 | 8.19 | –
2 | O=C(O)C(=O)c1ccc(OCc2ccc(COc3ccc(C(=O)C(=O)O)cc3)cc2)cc1 | 1.6 | – | – | – | 3.89 | 6.24 | –
3 | CCCCCC(=O)n1ncc2c1C(C)(C)[C@@H]1CC[C@]3(C)[C@H](CC=C4[C@@H]5CC(C)(C)CC[C@]5(C(=O)O)CC[C@]43C)[C@@]1(C)C2 | 3.2 | – | – | – | 1.75 | 5.56 | –
4 | CC1(C)CC[C@]2(C(=O)O)CC[C@]3(C)C(=CC[C@@H]4[C@@]5(C)Cc6cn[nH]c6C(C)(C)[C@@H]5CC[C@]43C)[C@@H]2C1 | 3.6 | > 40 | > 40 | > 40 | 1.65 | 5.99 | –
5 | CNc1ncc2c(n1)C(C)(C)[C@@H]1CC[C@]3(C)[C@H](CC=C4[C@@H]5CC(C)(C)CC[C@]5(C(=O)O)CC[C@]43C)[C@@]1(C)C2 | – | – | – | – | 5.44 | – | –
6 | CC1(C)CC[C@]2(C(=O)O)CC[C@]3(C)C(=CC[C@@H]4[C@@]5(C)Cc6cnn(-c7ccccc7)c6C(C)(C)[C@@H]5CC[C@]43C)[C@@H]2C1 | 2.7 | > 40 | > 40 | > 40 | 1.39 | 3.8 | –
7 | CC1(C)CC[C@]2(C(=O)O)CC[C@]3(C)C(=CC[C@@H]4[C@@]5(C)Cc6cnn(C(=O)c7cccnc7)c6C(C)(C)[C@@H]5CC[C@]43C)[C@@H]2C1 | 6.9 | – | – | – | 0.64 | 4.39 | –
8 | CC1(C)CC[C@]2(C(=O)O)CC[C@]3(C)C(=CC[C@@H]4[C@@]5(C)C[C@@H](O)[C@@H](O)C(C)(C)[C@@H]5CC[C@]43C)[C@@H]2C1 | – | – | – | – | 14.3 | – | –
9 | CC(=O)n1ncc2c1C(C)(C)[C@@H]1CC[C@]3(C)[C@H](CC=C4[C@@H]5CC(C)(C)CC[C@]5(C(=O)O)CC[C@]43C)[C@@]1(C)C2 | 3.3 | – | – | – | 1.48 | 4.93 | –
10 | CC1(C)CC[C@]2(C(=O)O)CC[C@]3(C)C(=CC[C@@H]4[C@@]5(C)Cc6cnc(N)nc6C(C)(C)[C@@H]5CC[C@]43C)[C@@H]2C1 | 3.1 | – | – | – | 1.78 | 5.51 | –
11 | CC1(C)CC[C@]2(C(=O)O)CC[C@]3(C)C(=CC[C@@H]4[C@@]5(C)Cc6sc(N)nc6C(C)(C)[C@@H]5CC[C@]43C)[C@@H]2C1 | 3.4 | > 40 | > 40 | > 40 | 1.92 | 6.44 | –
12 | CC1(C)CC[C@]2(C(=O)O)CC[C@]3(C)C(=CC[C@@H]4[C@@]5(C)Cc6cnn(C(=O)c7ccncc7)c6C(C)(C)[C@@H]5CC[C@]43C)[C@@H]2C1 | 4.5 | – | – | – | 0.81 | 3.62 | –
13 | CC1(C)CC[C@]2(C(=O)O)CC[C@]3(C)C(=CC[C@@H]4[C@@]5(C)Cc6c([nH]c7ccccc67)C(C)(C)[C@@H]5CC[C@]43C)[C@@H]2C1 | 2.6 | – | – | – | 0.61 | 1.6 | –
14 | CC1(C)CC[C@]2(C(=O)O)CC[C@]3(C)C(=CC[C@@H]4[C@@]5(C)Cc6nccnc6C(C)(C)[C@@H]5CC[C@]43C)[C@@H]2C1 | 4.6 | > 40 | > 40 | > 40 | 1.79 | 8.31 | –
15 | CC1(C)CC[C@]2(C(=O)O)CC[C@]3(C)C(=CC[C@@H]4[C@@]5(C)C[C@H](O)[C@H](O)C(C)(C)[C@@H]5CC[C@]43C)[C@@H]2C1 [AUGUSTIC ACID] | – | – | – | – | 4.93 | – | –
16 | CC1(C)CC[C@]2(C(=O)O)CC[C@]3(C)C(=CC[C@@H]4[C@@]5(C)C[C@@H](O)[C@H](O)C(C)(C)[C@@H]5CC[C@]43C)[C@@H]2C1 [MASLINIC ACID] | 3.3 | > 40 | > 40 | > 40 | 5.93 | 19.5 | 28
17 | CC1(C)CC[C@]2(C(=O)O)CC[C@]3(C)C(=CC[C@@H]4[C@@]5(C)Cc6cnoc6C(C)(C)[C@@H]5CC[C@]43C)[C@@H]2C1 | 3.3 | > 40 | > 40 | > 40 | 2.6 | 8.44 | –
18 | CC1(C)CC[C@]2(C(=O)O)CC[C@]3(C)C(=CC[C@@H]4[C@@]5(C)Cc6nc7ccccc7nc6C(C)(C)[C@@H]5CC[C@]43C)[C@@H]2C1 | 4.1 | > 40 | > 40 | > 40 | 1.43 | 5.88 | –
19 | Cc1ncc2c(n1)C(C)(C)[C@@H]1CC[C@]3(C)[C@H](CC=C4[C@@H]5CC(C)(C)CC[C@]5(C(=O)O)CC[C@]43C)[C@@]1(C)C2 | 2.5 | – | – | – | 2.61 | 6.5 | –
